According to ChEMBL document CHEMBL5505999, “Discovery of anti-inflammatory agents from 3, 4-dihydronaphthalene-1(2H)-one derivatives by inhibiting NLRP3 inflammasome activation” (Eur J Med Chem, 2024):
Active and inactive are the calls of the source. The calls are words filed in the database; no cut-off is given here.

Experiments:
RAW264.7 [1] = test: Anti-inflammatory activity in mouse RAW264.7 cells assessed as inhibition of LPS-induced IL-18 production pretreated with compound for 2 hrs followed by LPS addition for 22 hrs and measured 30 mins after LPS addition by ELISA; type: functional, cell-based; details: dose 1.5-6 µM, time 24.5 hrs
[2] = Cytotoxicity against mouse RAW264.7 cells assessed as survival rate at 2.5 uM incubated overnight by CCK-8 assay relative to control; type: toxicity, cell-based; details: read-out: Survival
RAW264.7 [3] = test: Anti-inflammatory activity in mouse RAW264.7 cells assessed as inhibition of LPS-induced TNF-alpha production at 2.5 uM pretreated with compound for 2 hrs followed by LPS addition and measured after 22 hrs by ELISA relative to control; type: functional; details: time 24 hrs
RAW264.7 [4] = test: Anti-inflammatory activity in mouse RAW264.7 cells assessed as inhibition of LPS-induced IL-6 production at 2.5 uM pretreated with compound for 2 hrs followed by LPS addition and measured after 22 hrs by ELISA relative to control; type: functional; details: time 24 hrs
RAW264.7 [5] = test: Anti-inflammatory activity in mouse RAW264.7 cells assessed as inhibition of LPS-induced TNF-alpha production pretreated with compound for 2 hrs followed by LPS addition and measured after 22 hrs by ELISA; type: functional, cell-based; details: dose 1.5-6 µM, time 24.0 hrs
RAW264.7 [6] = test: Anti-inflammatory activity in mouse RAW264.7 cells assessed as inhibition of LPS-induced IL-6 production pretreated with compound for 2 hrs followed by LPS addition and measured after 22 hrs by ELISA; type: functional, cell-based; details: dose 1.5-6 µM, time 24.0 hrs
RAW264.7 [7] = test: Anti-inflammatory activity in mouse RAW264.7 cells assessed as inhibition of LPS-induced IL-1beta production pretreated with compound for 2 hrs followed by LPS addition for 22 hrs and measured 30 mins after LPS addition by ELISA; type: functional, cell-based; details: dose 1.5-6 µM, time 24.5 hrs
[8] = molecular target: NACHT, LRR and PYD domains-containing protein 3 (Mus musculus) (UniProt Q8R4B8); test: Inhibition of NLRP3 inflammasome activation in LPS-induced mouse RAW264.7 cells assessed as reduction in ROS production by measuring intracellular ROS level at 1.5 uM incubated for 24 hrs by DCFH-DA staining based flow cytometric analysis (reference value: 42.0%); type: cell-based; design: scale not given: the % may be the effect or the level left
[9] = molecular target: NACHT, LRR and PYD domains-containing protein 3 (Mus musculus) (UniProt Q8R4B8); test: Inhibition of NLRP3 inflammasome activation in LPS-induced mouse RAW264.7 cells assessed as reduction in ROS production by measuring intracellular ROS level at 3.0 uM incubated for 24 hrs by DCFH-DA staining based flow cytometric analysis (reference value: 42.0%); type: cell-based; design: scale not given: the % may be the effect or the level left
[10] = molecular target: NACHT, LRR and PYD domains-containing protein 3 (Mus musculus) (UniProt Q8R4B8); test: Inhibition of NLRP3 inflammasome activation in LPS-induced mouse RAW264.7 cells assessed as reduction in ROS production by measuring intracellular ROS level at 6.0 uM incubated for 24 hrs by DCFH-DA staining based flow cytometric analysis (reference value: 42.0%); type: cell-based; design: scale not given: the % may be the effect or the level left
[11] = molecular target: NACHT, LRR and PYD domains-containing protein 3 (Mus musculus) (UniProt Q8R4B8); test: Inhibition of NLRP3 inflammasome activation in LPS-induced mouse RAW264.7 cells assessed as reduction in NO production incubated for 24 hrs by Griess reagent based assay; type: cell-based; details: dose 1.5-6 µM
[12] = Induction of apoptosis in mouse RAW264.7 cells assessed as viable cells at 1.5 uM by Annexin V-FITC/PI staining based flow cytometric analysis (reference value: 96.4%); type: toxicity, cell-based; details: read-out: Activity
RAW264.7 [13] = test: Induction of apoptosis in mouse RAW264.7 cells assessed as apoptotic cells at 1.5 uM by Annexin V-FITC/PI staining based flow cytometric analysis (reference value: 1.9%); type: toxicity, cell-based; details: raw264.7, 1.5 µM
[14] = Induction of apoptosis in mouse RAW264.7 cells assessed as viable cells at 3.0 uM by Annexin V-FITC/PI staining based flow cytometric analysis (reference value: 96.4%); type: toxicity, cell-based; details: read-out: Activity
RAW264.7 [15] = test: Induction of apoptosis in mouse RAW264.7 cells assessed as apoptotic cells at 3.0 uM by Annexin V-FITC/PI staining based flow cytometric analysis (reference value: 1.9%); type: toxicity, cell-based; details: raw264.7, 3 µM
[16] = Induction of apoptosis in mouse RAW264.7 cells assessed as viable cells at 6.0 uM by Annexin V-FITC/PI staining based flow cytometric analysis (reference value: 96.4%); type: toxicity, cell-based; details: read-out: Activity
RAW264.7 [17] = test: Induction of apoptosis in mouse RAW264.7 cells assessed as apoptotic cells at 6.0 uM by Annexin V-FITC/PI staining based flow cytometric analysis (reference value: 1.9%); type: toxicity, cell-based; details: raw264.7, 6 µM
[18] = molecular target: Transcription factor p65 (Mus musculus) (UniProt Q04207); test: Inhibition of NF-kappaB p65 nuclear translocation in LPS-induced mouse RAW264.7 cells assessed as increase in p65 subunits in cytoplasm at 6.0 uM preincubated with compound for 2 hrs followed by LPS addition and measured after 2 hrs by DAPI staining based Zeiss laser confocal microscopic analysis; type: cell-based; details: time 4.0 hrs
RAW264.7 [19] = test: Inhibition of NF-kappaB signaling pathway in mouse RAW264.7 cells assessed as reduction in p65 phosphorylation preincubated with compound for 2 hrs followed by LPS addition and measured after 22 hrs by Western blot analysis; type: cell-based; details: dose 1.5-6 µM, time 24.0 hrs
RAW264.7 [20] = test: Inhibition of NF-kappaB signaling pathway in mouse RAW264.7 cells assessed as reduction in IkappaBalpha phosphorylation preincubated with compound for 2 hrs followed by LPS addition and measured after 22 hrs by Western blot analysis; type: cell-based; details: dose 1.5-6 µM, time 24.0 hrs
[21] = molecular target: NACHT, LRR and PYD domains-containing protein 3 (Mus musculus) (UniProt Q8R4B8); test: Inhibition of NLRP3 inflammasome activation in mouse RAW264.7 cells assessed as reduction in NLRP3 expression at 1.5 to 6.0 uM preincubated with compound for 2 hrs followed by LPS addition and measured after 30 mins by Western blot analysis; type: cell-based; details: dose 1.5-6 µM, time 2.5 hrs
[22] = molecular target: NACHT, LRR and PYD domains-containing protein 3 (Mus musculus) (UniProt Q8R4B8); test: Inhibition of NLRP3 inflammasome activation in mouse RAW264.7 cells assessed as reduction in ASC expression at 1.5 to 6.0 uM preincubated with compound for 2 hrs followed by LPS addition and measured after 30 mins by Western blot analysis; type: cell-based; details: dose 1.5-6 µM, time 2.5 hrs

Chain of NACHT, LRR and PYD domains-containing protein 3 (Mus musculus) (Q8R4B8 whole entry, the tested form may be a part): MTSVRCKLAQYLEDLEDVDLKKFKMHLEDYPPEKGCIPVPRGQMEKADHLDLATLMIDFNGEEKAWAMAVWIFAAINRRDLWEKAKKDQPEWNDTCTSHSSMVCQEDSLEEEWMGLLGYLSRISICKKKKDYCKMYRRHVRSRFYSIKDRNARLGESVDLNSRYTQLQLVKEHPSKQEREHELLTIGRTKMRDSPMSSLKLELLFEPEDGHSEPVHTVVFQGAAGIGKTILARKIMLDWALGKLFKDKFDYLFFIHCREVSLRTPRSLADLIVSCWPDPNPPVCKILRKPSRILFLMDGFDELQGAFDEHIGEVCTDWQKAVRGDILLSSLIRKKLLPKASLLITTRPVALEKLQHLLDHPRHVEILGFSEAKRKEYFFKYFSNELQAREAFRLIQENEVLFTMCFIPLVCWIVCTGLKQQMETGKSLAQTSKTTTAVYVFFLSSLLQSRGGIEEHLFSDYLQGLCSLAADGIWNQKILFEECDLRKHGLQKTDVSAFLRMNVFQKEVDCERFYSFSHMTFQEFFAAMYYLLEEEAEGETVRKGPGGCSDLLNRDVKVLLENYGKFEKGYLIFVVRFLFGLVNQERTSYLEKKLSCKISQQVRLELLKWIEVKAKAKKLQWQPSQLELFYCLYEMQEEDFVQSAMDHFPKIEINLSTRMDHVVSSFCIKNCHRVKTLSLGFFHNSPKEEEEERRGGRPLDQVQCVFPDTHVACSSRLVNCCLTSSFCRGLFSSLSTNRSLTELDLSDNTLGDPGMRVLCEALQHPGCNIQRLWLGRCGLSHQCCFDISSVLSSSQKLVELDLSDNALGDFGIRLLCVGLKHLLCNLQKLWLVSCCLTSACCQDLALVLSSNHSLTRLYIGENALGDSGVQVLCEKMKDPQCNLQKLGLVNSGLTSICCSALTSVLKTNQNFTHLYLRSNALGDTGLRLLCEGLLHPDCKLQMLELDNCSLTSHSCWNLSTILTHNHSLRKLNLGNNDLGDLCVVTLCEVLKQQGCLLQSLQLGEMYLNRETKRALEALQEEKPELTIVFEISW
Chain of Transcription factor p65 (Mus musculus) (Q04207 whole entry): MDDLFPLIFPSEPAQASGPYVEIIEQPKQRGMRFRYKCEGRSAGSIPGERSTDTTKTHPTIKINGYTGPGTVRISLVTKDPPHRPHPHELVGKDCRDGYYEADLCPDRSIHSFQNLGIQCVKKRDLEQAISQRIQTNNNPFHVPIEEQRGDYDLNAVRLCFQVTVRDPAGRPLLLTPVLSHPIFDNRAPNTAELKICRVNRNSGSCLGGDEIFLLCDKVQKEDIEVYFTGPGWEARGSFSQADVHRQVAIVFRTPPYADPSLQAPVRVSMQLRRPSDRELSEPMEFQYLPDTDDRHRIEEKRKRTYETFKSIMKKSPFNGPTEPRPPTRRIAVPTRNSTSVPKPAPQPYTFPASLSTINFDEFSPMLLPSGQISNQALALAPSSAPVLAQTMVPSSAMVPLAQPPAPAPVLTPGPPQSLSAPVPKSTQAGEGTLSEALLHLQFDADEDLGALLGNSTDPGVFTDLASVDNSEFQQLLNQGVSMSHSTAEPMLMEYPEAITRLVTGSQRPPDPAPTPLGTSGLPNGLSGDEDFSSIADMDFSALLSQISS

With CN1CCN(c2ccc(/C=C3\CCc4ccc(Br)cc4C3=O)nc2)CC1 the Activity (RAW264.7 [1]) was “Dose-Dependent Effect”, the viability at 2.5 µM [2] was 108% and the inhibition at 2.5 µM (RAW264.7 [3]) was 81.4%. For the same molecule, the inhibition at 2.5 µM (RAW264.7 [4]) was 69.2%, the Activity (RAW264.7 [5]) was “Dose-Dependent Effect” and the Activity (RAW264.7 [6]) was “Dose-Dependent Effect”. For the same molecule, the Activity (RAW264.7 [7]) was “Dose-Dependent Effect”, the Activity [8] was 36.4% and the Activity [9] was 31.8%. The Activity [10] was 19.9%, the inhibition [11] was “Dose-Dependent Effect” and the viability at 1.5 µM [12] was 94.4%. The Activity (RAW264.7 [13]) was 3.8%, the viability at 3 µM [14] was 92.8% and the Activity (RAW264.7 [15]) was 5.6%. For the same molecule, the viability at 6 µM [16] was 91.6%, the Activity (RAW264.7 [17]) was 6.8% and the inhibition [18] was “Active”. For the same molecule, the inhibition (RAW264.7 [19]) was “Dose-Dependent Effect”, the inhibition (RAW264.7 [20]) was “Dose-Dependent Effect” and the inhibition [21] was “Active”. The inhibition [22] was “Active”.
